From patent US20240343757A1, “PROCESS FOR THE PREPARATION OF BUDESONIDE 21-PHOSPHATE” (GENETIC S.P.A., priority 2021, published 2024)

Tests used:
Solubility in water = assay type: physicochemical
Description: 55, no. 1, pp. 578-582] at physiological pH in the intestinal region.
For this reason, hydroalcoholic solutions are usually prepared dissolving an adequate amount of active substance in solubilizers such as water-soluble alcohols. However, the so prepared solutions have low stability because large amounts of budesonide are decomposed within a short time. Moreover, budesonide formulations have been prepared until now in the form of aqueous suspensions in which the solid phase tends in time to deposit onto the bottom of the container, thus requiring chemical additives or vigorous stirring. These are the reasons that make budesonide not suitable to be delivered by an electric nebulizer.
Budesonide 21-phosphate disodium salt has a much higher water solubility than Budesonide and Budesonide 21-phosphate.

[1] = Stability in aqueous solution at the concentration of use, room temperature; assay type: physicochemical; details: concentration of use 0.25 mg ml-4.0 mg ml
Experimental: At the concentration of use (0.25 mg ml-4.0 mg ml), it is rapidly soluble and remains stable at room temperature for long periods of time (12 months) without yellowing or precipitating.

[2] = ICH stability testing of budesonide 21-phosphate disodium salt (drug substance); assay type: physicochemical; details: for assay content by HPLC: specification 95.0-105.0%; for unknown impurities: specification ≤0.1%; for known impurities: specification ≤0.2%
Experimental: Purity was assessed through the HPLC method of the European Pharmacopoeia 1075-Budesonide-related substance. […]

[3] = background statement; cited from earlier work
[4] = background statement; cited from earlier work; remark: listed apart in the source
[5] = 40° C. and 75% RH (accelerated), Time 0
[6] = 40° C. and 75% RH (accelerated), Time 3 m
[7] = 40° C. and 75% RH (accelerated), Time 6 m

Budesonide 21-phosphate disodium salt
water solubility (Solubility in water): 110 mg/mL | water solubility class (Solubility in water; freely soluble = 100-1000 mg/mL): freely soluble in water | period stable in solution without yellowing or precipitating [1]: 12 months | assay content by HPLC ([2]; 25° C. and 60% RH, Time 0): 98.22% | unknown impurities ([2]; 25° C. and 60% RH, Time 0): 0.05% | known impurities ([2]; 25° C. and 60% RH, Time 0): 0.14% | assay content by HPLC ([2]; 25° C. and 60% RH, Time 3 m): 98.10% | unknown impurities ([2]; 25° C. and 60% RH, Time 3 m): 0.05% | known impurities ([2]; 25° C. and 60% RH, Time 3 m): 0.14% | assay content by HPLC ([2]; 25° C. and 60% RH, Time 6 m): 98.08% | unknown impurities ([2]; 25° C. and 60% RH, Time 6 m): 0.05% | known impurities ([2]; 25° C. and 60% RH, Time 6 m): 0.14% | assay content by HPLC ([2]; 25° C. and 60% RH, Time 9 m): 97.85% | unknown impurities ([2]; 25° C. and 60% RH, Time 9 m): 0.08% | known impurities ([2]; 25° C. and 60% RH, Time 9 m): 0.15% | assay content by HPLC ([2]; 25° C. and 60% RH, Time 12 m): 97.45% | unknown impurities ([2]; 25° C. and 60% RH, Time 12 m): 0.08% | known impurities ([2]; 25° C. and 60% RH, Time 12 m): 0.15% | assay content by HPLC ([2]; 30° C. and 65% RH, Time 0): 98.22% | unknown impurities ([2]; 30° C. and 65% RH, Time 0): 0.05% | known impurities ([2]; 30° C. and 65% RH, Time 0): 0.14% | assay content by HPLC ([2]; 30° C. and 65% RH, Time 3 m): 97.50% | unknown impurities ([2]; 30° C. and 65% RH, Time 3 m): 0.15% | known impurities ([2]; 30° C. and 65% RH, Time 3 m): 0.20% | assay content by HPLC ([2]; 30° C. and 65% RH, Time 6 m): 97.28% | unknown impurities ([2]; 30° C. and 65% RH, Time 6 m): 0.15% | known impurities ([2]; 30° C. and 65% RH, Time 6 m): 0.25% | assay content by HPLC ([2]; 30° C. and 65% RH, Time 9 m): 97.00% | unknown impurities ([2]; 30° C. and 65% RH, Time 9 m): 0.40% | known impurities ([2]; 30° C. and 65% RH, Time 9 m): 0.25% | assay content by HPLC ([2]; 30° C. and 65% RH, Time 12 m): 94.55% | unknown impurities ([2]; 30° C. and 65% RH, Time 12 m): 0.40% | known impurities ([2]; 30° C. and 65% RH, Time 12 m): 0.30% | assay content by HPLC [2, 5]: 98.22% | unknown impurities [2, 5]: <0.05% | known impurities [2, 5]: 0.14% | assay content by HPLC [2, 6]: 96.50% | unknown impurities [2, 6]: 2.45% | known impurities [2, 6]: 0.30% | assay content by HPLC [2, 7]: 93.28% | unknown impurities [2, 7]: 2.80% | known impurities [2, 7]: 0.45%

CCCC1OC2CC3C4CCC5=CC(=O)C=CC5(C)C4C(O)CC3(C)C2(C(=O)CO)O1 (stereo not drawn) [Budesonide, 1β,21-dihydroxy-16α, 17α-(butylidenebis(oxy)) pregna-1,4-diene-3,20-dione]
solubility in water [3]: virtually insoluble in water | solubility in alcohols [4]: readily soluble in alcohols
